How the values were obtained:
[1] = Half-life in dog at 1 mg/kg, po; type: ADME, organism-based, Canis lupus familiaris; settings: in vivo
[2] = Cmax in mouse at 300 mg/kg, po administered as suspension in 10% captisol; type: ADME, organism-based; set-up: dose 300 mg/kg, route oral; settings: in vivo
[3] = Half-life in mouse at 30 mg/kg, po; type: ADME, organism-based; settings: in vivo
[4] = AUC (infinity) in dog at 1 mg/kg, po; type: ADME, organism-based, Canis lupus familiaris; set-up: dose 1 mg/kg, time infinity, route oral; settings: in vivo
[5] = Oral bioavailability in mouse at 5 mg/kg; type: ADME, organism-based; settings: in vivo
[6] = Protein binding in monkey plasma at 5 uM incubated for 4 hrs by LC-MS/MS analysis; type: ADME, cell-free, Macaca mulatta; settings: rhesus monkey, read-out: PPB (converted)
Mus musculus = test: In vivo inhibition of IRAK4 in CpG ODN 1826 induced C57BL/6 mouse assessed as blockade of TLR9 signalling by measuring TNFalpha levels at 100 mg/kg, po treated 1 hr prior to CpG ODN 1826 stimulation and measured after 1 hr by MSD assay; type: functional; set-up: scale not given: the % may be the effect or the level left
[7] = Cmax in mouse at 5 mg/kg, po; type: ADME, organism-based; set-up: dose 5 mg/kg, route oral; settings: in vivo, read-out: Cmax
[8] = Volume of distribution at steady state in mouse at 1 mg/kg, iv; type: ADME, organism-based; settings: in vivo, read-out: Vdss
[9] = Protein binding in rat plasma at 5 uM incubated for 4 hrs by LC-MS/MS analysis; type: ADME, cell-free; settings: read-out: PPB (converted)
[10] = Volume of distribution at steady state in monkey at 1 mg/kg, iv; type: ADME, organism-based, Macaca mulatta; settings: rhesus monkey, in vivo, read-out: Vdss
[11] = Cmax in mouse at 100 mg/kg, po administered as suspension in MCT; type: ADME, organism-based; set-up: dose 100 mg/kg, route oral; settings: in vivo
[12] = Plasma clearance in mouse at 1 mg/kg, iv; type: ADME, organism-based
[13] = Half-life in mouse at 100 mg/kg, po administered as suspension in 10% captisol; type: ADME, organism-based; settings: in vivo
[14] = Protein binding in human plasma at 5 uM incubated for 4 hrs by LC-MS/MS analysis; type: ADME, cell-free; settings: read-out: PPB (converted)

C[C@]1(CO)Cc2cc(NC(=O)c3cnn4cccnc34)c(N3CCOCC3)cc2O1
half-life [1]: 102 min | Cmax [2]: 14 µM | half-life [3]: 78 min | AUC(0-inf) [4]: 1.4 µM·h | bioavailability [5]: 59% | fraction unbound at 4 h, 5 µM [6]: 0.49 | Activity (Mus musculus): -89% | Cmax [7]: 2100 nM | Vd [8]: 1.1 L/kg | fraction unbound at 4 h, 5 µM [9]: 0.21 | Vd [10]: 4.4 L/kg | Cmax [11]: 4.8 µM | clearance [12]: 54 mL/min/kg | half-life [13]: 198 min | fraction unbound at 4 h, 5 µM [14]: 0.44
